# Laboratory results reported in patent US20100152137A1, “Alkylphospholipids as active agents for prevention of plant pathogens” (KTB-Tumorforschungs GMBH, priority 2006, published 2010).
# Several values for one entry are separate records, joined by “and”; a condition that tells them apart may be missing. Equal values may be shown once.
# Key:
# Plasmopara viticola [1] = test: Grapevine leaf disk test against downy mildew; format: in vivo, Plasmopara viticola on Vitis vinifera cv. Müller-Thurgau; details: for Average infestation intensity: five-point scale 1-5, per experiment; for No. of leaf disks at scale point 1 (no sporulation) / No. of leaf disks at scale point 2 / No. of leaf disks at scale point 3 / No. of leaf disks at scale point 4 / No. of leaf disks at scale point 5 (sporulation all over the surface): six days after infection
# Description: Greenhouse plants of the variety Müller-Thurgau (Vitis vinifera cv. Müller-Thurgau) served as the starting material. Young leaves were sterilized on the surface with 70% (v/v) ethanol. Subsequently, leaf disks of 16 mm in diameter were punched out and placed upside down onto water agar (0.8%) in transparent boxes. One drop (about 60 μl) of an aqueous test solution (concentrations employed, see FIG. 1) was applied 24 h before the infection with the pathogen causing downy mildew (Plasmopara viticola), and the leaf disks were incubated at 25° C. (16 h of white light 300 μmol m^−2 s^−1; 8 h of dark) and >95% relative humidity. After 24 h, the drop was removed and replaced by a drop containing spores of the pathogen (about 50 μl of an aqueous suspension containing 2×10^5 sporangia/mil). The infestation intensity was determined six days after the infection.
# The infestation intensity was determined by means of a five-point scale ranging from 1 (no sporulation) to 5 (sporulation all over the surface). For each substance and concentration, 10 leaf disks per experiment were evaluated, and the mean value from at least three independent parallel experiments was determined. Distilled water and phosphite as negative and positive controls, respectively.
# Plasmopara viticola [2] = test: Downy mildew control on intact greenhouse plants; format: in vivo, Plasmopara viticola on Vitis vinifera cv. Müller-Thurgau; details: for II (%) per REP / II (%) per variant: infestation intensity; for RW II IF (%): relation value for infestation frequency vs control; for RW II II (%): relation value for infestation intensity vs control
# Description: Greenhouse plants of the variety Müller-Thurgau (Vitis vinifera cv. Müller-Thurgau) served as the starting material. At least three plants each in the ten leaf stage were employed per test solution. HePC was applied (sprayed with the application device System Schachtner) in concentrations of 0.01%, 0.05% and 0.1%. In an additional experiment with 0.01% HePC, the same concentration of HePC (0.01%) was additionally applied one week before (2×HePC). After 24 h from the application of the test solutions, the plants were infected with the pathogen causing downy mildew (Plasmopara viticola). Six days after the infection, the sporulation of Plasmopara viticola was induced, and then the infestation intensity was established.
# Thus, the percent proportion of the sporulating surface area relative to the entire surface area of each leaf was visually observed. For each substance and concentration, the leaves of at least three plants were evaluated, and the mean value determined. The application of distilled water served as a negative control. The experiment was repeated twice.
# [3] = system: pathogen causing downy mildew of grapevine; test: Outdoor test in the vineyard under practical conditions; format: in vivo, Müller-Thurgau grapevine; details: HePC 0.2%, no artificial infection, status Jun. 19, 2007
# Source text: Currently (vegetation period of 2007), HePC (0.2%) is being tested in an outdoor test. In these experiments, the plants in a commercial vineyard (Müller-Thurgau, age about 15 years) are not artificially infected. For this experiment, 3×6 plants (different locations in the vineyard) were employed. In addition, a corresponding untreated control is observed. […] Thus, to date, it has not been possible to observe infestation of the plants treated with HePC, despite of the currently sticky and humid weather (optimum infection conditions) and the very early start of the vegetation period in this year. In contrast, infestation of the control has already been observed.
# Plasmopara viticola [4] = test: Downy mildew control on Gutedel seedlings; format: in vivo, Plasmopara viticola on Gutedel seedlings; details: for Infestation incidence (%) / Infestation intensity (%): evaluated after 10 days
# Description: The examinations were performed with seedlings of the variant “Gutedel”, the seedlings having 3-4 leaves and a height of 8-12 cm at the time of application. HePC (0.01 and 0.001%) was applied with a rotary plate automated spraying device (about 1.2 bar spraying pressure) for 20 seconds. For each concentration, 6 plants were treated, which also applied to the positive control (infection, no treatment) and negative control (no infection, no treatment).
# After the leaves had dried, the plants were infected/sprayed with Plasmopara viticola (spore suspension (100,000 spores/ml)) and further kept at 21° C. and 100% RH in a cycle of 16 h of day and 8 h of night.
# The proportion of leaves infested (incidence) and the intensity of infestation, i.e., the infested proportion of the leaf areas, were evaluated.
# [5] = system: single cell culture of Vitis vinifera cv. Pinot noir; test: pH change (alcalinization) in the medium of a single cell culture of grapevine; format: cell-based
# Source text: A response of plant cells to substances that can induce resistance in plants is to open ion channels in the cell membrane. Thereupon, protons flow into the interior of the cell, which causes alcalinization of the medium surrounding the cell. This temporary alcalinization has been measured.
# Greenhouse plants of the variety Pinot noir (Vitis vinifera cv. Pinot noir) served as the starting material. A callus culture was started first from young shoots. Thus, the plant parts were cut into pieces about 1-2 cm in size, washed in 70% (v/v) ethanol and sterilized in 3.5% (w/v) NaOCl solution for about 2 min. The sterilized tissue pieces were transferred to solid MS nutrient medium (Murashige, T. and Skoog, F., Physiol. Plant, 18: 100-127 (1962)) and slightly pushed into the agar, so that the cuts came into contact with the medium. The formation of callus tissue occurred at 23° C. in a phytochamber (16 h of white light 300 μmol m^−2 s^−1; 8 h of dark; >95% relative humidity). At the cuts, calluses formed, which were repeatedly transferred to a new medium in a sterile manner after 4-6 weeks.
# Starting from strongly growing callus cultures, single cell cultures were started. Thus, cells were passaged under sterile conditions from callus tissue to liquid MS nutrient medium. The cell cultures were grown in a temperature constant room at 23° C. on a rotary shaker (120 rpm). In regular passage cycles of 4 days, the cell cultures were admixed with 40 ml of new liquid MS nutrient medium and distributed in two equal parts of about 40 ml to two 250 ml Erlenmeyer flasks.
# For measuring the pH of the medium, 10 ml of a 2 days old cell culture was added to a small rolled rim vial. The rolled rim vial was placed onto a shaker, and a pH electrode was immersed into the cell culture. The electrode was fixed to be constantly washed round by the cell culture. The revolutions per minute of the shaker was 140 rpm. After the measured pH had stabilized, the substance to be tested was added, and the change of pH was continuously recorded with a plotter.
# [6] = HePC 0.05%, infestation frequency
smiles,measurement,setting,value
"CCCCCCCCCCCCCCCCOP(=O)([O-])OCC[N+](C)(C)C [HePC, hexadecylphosphocholine]",Average infestation intensity,Plasmopara viticola [1]; HePC 0.0001%,5.0 and 2.9
same,No. of leaf disks at scale point 1 (no sporulation),Plasmopara viticola [1]; HePC 0.0001%,0
same,Average infestation intensity,Plasmopara viticola [1]; HePC 0.01%,1.0
same,No. of leaf disks at scale point 1 (no sporulation),Plasmopara viticola [1]; HePC 0.01%,9
same,No. of leaf disks at scale point 2,Plasmopara viticola [1]; HePC 0.01%,0
same,No. of leaf disks at scale point 3,Plasmopara viticola [1]; HePC 0.01%,0
same,No. of leaf disks at scale point 4,Plasmopara viticola [1]; HePC 0.01%,0
same,No. of leaf disks at scale point 5 (sporulation all over the surface),Plasmopara viticola [1]; HePC 0.01%,0
same,Average infestation intensity,Plasmopara viticola [1]; HePC 0.1%,1.0
same,No. of leaf disks at scale point 1 (no sporulation),Plasmopara viticola [1]; HePC 0.1%,9
same,No. of leaf disks at scale point 2,Plasmopara viticola [1]; HePC 0.1%,0
same,No. of leaf disks at scale point 3,Plasmopara viticola [1]; HePC 0.1%,0
same,No. of leaf disks at scale point 4,Plasmopara viticola [1]; HePC 0.1%,0
same,No. of leaf disks at scale point 5 (sporulation all over the surface),Plasmopara viticola [1]; HePC 0.1%,0
same,IF (%) per variant,"Plasmopara viticola [2]; HePC 0.01% applied once, infestation frequency",53.4%
same,II (%) per REP,Plasmopara viticola [2]; HePC 0.01% applied once,1.67% and 2.89% and 4.00%
same,II (%) per variant,Plasmopara viticola [2]; HePC 0.01% applied once,2.85%
same,RW II IF (%),Plasmopara viticola [2]; HePC 0.01% applied once,23.6% and 23.56%
same,RW II II (%),Plasmopara viticola [2]; HePC 0.01% applied once,73.2% and 73.16%
same,II (%) per REP,"Plasmopara viticola [2]; HePC 0.01%, 2 x (also applied one week before)",0.20% and 0.80% and 0.11%
same,IF (%) per variant,"Plasmopara viticola [2]; HePC 0.01%, 2 x, infestation frequency",23.7%
same,II (%) per variant,"Plasmopara viticola [2]; HePC 0.01%, 2 x",0.37%
same,RW II IF (%),"Plasmopara viticola [2]; HePC 0.01%, 2 x",66.1% and 66.09%
same,RW II II (%),"Plasmopara viticola [2]; HePC 0.01%, 2 x",96.5% and 96.51%
same,IF (%) per REP,Plasmopara viticola [2]; [6],33.3% and 44.4%
same,IF (%) per variant,Plasmopara viticola [2]; [6],37.0%
same,II (%) per REP,Plasmopara viticola [2]; HePC 0.05%,2.22% and 1.33% and 0.33%
same,II (%) per variant,Plasmopara viticola [2]; HePC 0.05%,1.30%
same,RW II IF (%),Plasmopara viticola [2]; HePC 0.05%,47.0% and 47.02%
same,RW II II (%),Plasmopara viticola [2]; HePC 0.05%,87.8%
same,IF (%) per variant,"Plasmopara viticola [2]; HePC 0.1%, infestation frequency",25.0%
same,II (%) per REP,Plasmopara viticola [2]; HePC 0.1%,0.11% and 0.33% and 0.89%
same,II (%) per variant,Plasmopara viticola [2]; HePC 0.1%,0.36%
same,RW II IF (%),Plasmopara viticola [2]; HePC 0.1%,64.2% and 64.24%
same,RW II II (%),Plasmopara viticola [2]; HePC 0.1%,96.6%
same,prevention of pathogen infestation,[3],good effect
same,infestation increased by a factor,Plasmopara viticola [4]; 0.001% HePC compared with 0.01% HePC,10
same,Infestation incidence (%),Plasmopara viticola [4]; HePC 0.001%,43%
same,Infestation intensity (%),Plasmopara viticola [4]; HePC 0.001%,33.9%
same,leaves infested as compared to the positive control,Plasmopara viticola [4]; HePC 0.01%,25%
same,Infestation incidence (%),Plasmopara viticola [4]; HePC 0.01%,13%
same,Infestation intensity (%),Plasmopara viticola [4]; HePC 0.01%,3.6%
same,Δ (pH),[5]; HePC final concentration 0.00025%,0.03
same,Δ (pH),[5]; HePC final concentration 0.00050%,0.16
same,Δ (pH),[5]; HePC final concentration 0.00075%,0.25
same,Δ (pH),[5]; HePC final concentration 0.00100% (w/v),0.41
